According to patent US6410790B1, “3-amin3-arylpropan-1-ol compounds, their preparation and use” (priority 1999, dated 2002):

What was measured:
[1] = test system: phenylquinone-induced writhing reaction; test: phenylquinone-induced writhing test in mice; format: in vivo; conditions: male NMRI mice, phenylquinone i.p. 10 minutes later; for inhibition in vivo at 10 mg/kg: Mus musculus, iv, 10 min, 10 mg/kg intravenously
How it was run: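 Male NMRI mice (25–30 g, n=10/group) received test substance i.v. at 10 mg/kg, then 0.02% phenylquinone i.p. 10 min later. Writhing reactions were counted 5–20 min after phenylquinone; % inhibition is relative to saline-treated controls.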

NA transporter = molecular target: T1, NA transporter (Rattus norvegicus, UniProt Q63380); test: synaptosomal noradrenaline uptake inhibition (NA uptake inhibition); format: biochemical; conditions: for NA Uptake Inhibition at 1 μM: 1 μM in the assay, synaptosomes from rat hypothalamus; for inhibition at 1 µM: read-out: NA Uptake Inhibition at 1 μM, 1 μM in the assay, synaptosomes from rat hypothalamus
T1 construct: synaptosomes are isolated fresh from rat brains; from tissue; host or cells: rat hypothalamus synaptosomes (P2 fraction)
T1 sequence (Q63380 1-617): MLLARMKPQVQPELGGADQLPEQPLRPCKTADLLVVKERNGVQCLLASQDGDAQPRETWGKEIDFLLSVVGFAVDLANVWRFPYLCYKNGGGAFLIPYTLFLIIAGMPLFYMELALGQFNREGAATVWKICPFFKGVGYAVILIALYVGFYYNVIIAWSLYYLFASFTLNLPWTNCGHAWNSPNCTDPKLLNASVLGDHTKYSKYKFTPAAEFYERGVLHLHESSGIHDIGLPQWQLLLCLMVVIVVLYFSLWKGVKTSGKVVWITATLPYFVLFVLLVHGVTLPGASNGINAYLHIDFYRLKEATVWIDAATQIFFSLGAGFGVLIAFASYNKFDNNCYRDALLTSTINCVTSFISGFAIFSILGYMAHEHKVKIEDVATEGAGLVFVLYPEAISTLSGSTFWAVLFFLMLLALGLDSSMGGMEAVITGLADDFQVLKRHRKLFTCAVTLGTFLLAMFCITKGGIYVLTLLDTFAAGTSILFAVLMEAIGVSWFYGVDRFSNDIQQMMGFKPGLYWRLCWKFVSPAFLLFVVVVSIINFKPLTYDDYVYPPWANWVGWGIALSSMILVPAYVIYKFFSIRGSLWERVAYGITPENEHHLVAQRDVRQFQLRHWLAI
How it was run: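 IC50 values converted to Ki via Cheng-Prusoff; Km by Lineweaver-Burk. N=4 independent series, each in triplicate, mean ± SEM.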

[2] = test system: phenylalkylamine binding site of the L-type calcium channel; test: Verapamil binding, L calcium channel; conditions: for Verapamil Binding at 10 μM: percentage inhibition, N-methyl-[3H]-verapamil 2 nM
Description: Binding Investigations in the L Calcium Channel
Phenylalkylamine Binding Site (Verapamil Binding)
The biological material (ion channel particles) was prepared on the basis of the publication of Reynolds, Gould and Snyder (I. J. Reynolds, R. J. Gould and S. H. Snyder (1983) […]. 95, 319-321).
N-methyl-[^3H]-verapamil (2 nM in the assay) was used as radioligand. The radioactivity that is measured in the presence of non-radioactive verapamil (10^−4 M in the assay) is defined as non-specific binding. The material was incubated at 25° C. for 45 minutes. The material was then filtered using a Whatman GF/B filter, followed by washing. The radioactivity remaining on the filter (ion channel binding) was measured using a β-counter.
For this purpose IC50 values are obtained, which can be converted to inhibitor constants (Ki) according to the “Cheng-Prusoff equation” (Y. C. Clieng and W. H. Prusoff (1973) Biochem. Pharmacol. 22, 3099-3108). The IC50 values were obtained by means of the computer program “Figure P” (version 6.0, Biosoft, Cambridge, England). Km values were calculated according to Lineweaver and Burk (H. Lineweaver and D. Burk (1934) J. Am. Chem. Soc. 56, 658-666). The “Ligand” computer program (version 4, Biosoft, England) was used to obtain Ken values.

[3] = test system: benzothiazepine binding site of the L-type calcium channel; test: Diltiazem binding, L calcium channel; set-up: species or system rat; conditions: 10 μM, percentage inhibition, [3H]-cis-(+)-diltiazem 5 nM, rat cerebral cortex membranes
How it was run: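 Rat cerebral cortex membranes incubated with [^3H]-cis-(+)-diltiazem (5 nM) for 20 min at 25° C; nonspecific binding defined with (±)-diltiazem (10^−6 M). Bound ligand collected by GF/B filtration and counted; IC50 values converted to Ki by Cheng-Prusoff.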

[4] = test system: binding site 2 of the sodium channel; test: BTX binding, sodium channel; conditions: 10 μM, percentage inhibition, [3H]-batrachotoxin A20 α-benzoate 10 nM, rat cerebral cortex synaptosomes
How it was run: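 Rat cerebral cortex synaptosomes incubated with 10 nM [^3H]-batrachotoxin A20 α-benzoate at 37° C for 120 min; non-specific binding defined with 0.3 mM veratridine. IC50 values converted to Ki via Cheng-Prusoff; means±SEM of 3 independent series run in triplicate.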

| Structure (SMILES) | inhibition in vivo at 10 mg/kg [1] [%] | Diltiazem Binding at 10 μM [3] [%] | Verapamil Binding at 10 μM [2] [%] | BTX Binding at 10 μM [4] [%] | inhibition at 1 µM (NA transporter) [%] | also measured |
| --- | --- | --- | --- | --- | --- | --- |
| CN(C)C(c1ccccc1)C1CCCCC1(O)c1ccc(Cl)c(Cl)c1.Cl (single isomer, unassigned; (+)) [+19, (+)-1-(3,4-dichlorophenyl)-2-(dimethylaminophenylmethyl)cyclohexanol, hydrochloride] | 74 | 85 | – | – | – | NA Uptake Inhibition at 1 μM (NA transporter; hydrochloride): 62%; Verapamil Binding at 10 μM ([2]; hydrochloride): 82%; BTX Binding at 10 μM ([4]; hydrochloride): 92% |
| CN(C)C(c1ccccc1)C1CCCCC1(O)c1ccc(Cl)c(Cl)c1.Cl (single isomer, unassigned; (-)) [−19, (−)-1(3,4-dichlorophenyl)-2-(dimethylaminophenylmethyl)cyclohexanol, hydrochloride] | – | 85 | – | – | – | % Inhibition of the writhing reaction at 10 mg/kg intravenously ([1]; hydrochloride, 10 mg/kg): 88%; NA Uptake Inhibition at 1 μM (NA transporter; hydrochloride): 36%; Verapamil Binding at 10 μM ([2]; hydrochloride): 83%; BTX Binding at 10 μM ([4]; hydrochloride): 96% |
| COc1cccc(C2(O)CCCCC2C(c2ccccc2)N(C)C)c1.Cl (stereo not shown) [Example 1, 2-(dimethlylaminophenylmethyl)-1-(3-methoxyphenyl)cyclohexanol, hydrochloride] | – | 65 | 76 | 77 | – | % Inhibition of the writhing reaction at 10 mg/kg intravenously [1]: 85%; NA Uptake Inhibition at 1 μM (NA transporter): 41% |
| CN(C)C(c1ccccc1)C1CCCCC1(O)c1cccc(F)c1.Cl (stereo not shown) [Example 2, 2-(dimethylaminophenylmethyl)-1-(3-fluorophenyl)cyclohexaniol, hydrochloride] | – | 52 | 76 | 80 | – | % Inhibition of the writhing reaction at 10 mg/kg intravenously [1]: 88%; NA Uptake Inhibition at 1 μM (NA transporter): 52% |
| CN(C)C(c1ccccc1)C1CCCCC1(O)c1ccccc1.Cl (stereo not shown) [Example 3, 2-(dimethylaminophenylmethyl)-1-phenylcyclohexanol, hydrochloride] | 83 | 50 | 68 | 78 | 41 | – |
| CN(C)C(c1ccccc1)C1CCCCC1(O)c1cccc(O)c1.Cl (stereo not shown) [Example 4] | – | 46 | 57 | 70 | – | % Inhibition of the writhing reaction at 10 mg/kg intravenously [1]: 75%; NA Uptake Inhibition at 1 μM (NA transporter): 49% |
| COc1ccc(C2(O)CCCCC2C(c2ccccc2)N(C)C)cc1.Cl (stereo not shown) [Example 5, 2-(dimethylaminophenylmethyl)-1-(4-methoxyphenyl)cyclohexanol, hydrochloride] | 100 | 54 | 56 | 97 | 70 | – |
| CN(C)C(c1ccccc1)C1CCCCC1(O)c1ccc(Cl)cc1.Cl (stereo not shown) [Example 6, 1-(4-chlorophenyl)-2-(dimethylaminophenylmethyl)cyclohexanol, hydrochloride] | 83 | 96 | 60 | 90 | 51 | – |
| CN(C)C(c1ccccc1)C1CCCCC1(O)c1ccc(F)cc1.Cl (stereo not shown) [Example 7, 2-(dimethylaminophenylmethyl)-1-(4-fluorophenyl)cyclohexanol, hydrochloride] | 85 | 78 | 56 | 86 | 38 | – |
| CN(C)c1ccc(C2(O)CCCCC2C(c2ccccc2)N(C)C)cc1.Cl (stereo not shown) [Example 10, 1-(4-dimethylaminophenyl)-2-[dimethylaminophenylmethyl]cyclohexanol, hydrochloride] | 97 | 69 | 61 | 88 | 48 | – |
| CN(C)C(c1ccccc1)C1CCCCC1(O)c1cccc2c1OCO2.Cl (stereo not shown) [Example 11, 1-benzo[1,3]dioxol-4-yl-2-(dimethylaminophenylmethyl)cyclohexanol, hydrochloride] | 99 | 85 | 61 | 79 | 54 | – |
| CN(C)C(c1ccccc1)C1CCCCC1(O)Cc1ccccc1.Cl (stereo not shown) [Example 14, 1-benzyl-2-(dimethylaminophenylmethyl)cyclohexanol, hydrochloride] | 70 | 88 | – | 89 | 100 | melting point: 223 to 225 °C |
| CN(C)C(c1ccccc1)C1CCCCC1(O)Cc1ccc(OC(F)(F)F)cc1.Cl (stereo not shown) [Example 16, 2-(dimethylaminophenylmethyl)-1-(4-trifluoromethoxybenzyl)cyclohexanol, hydrochloride] | 75 | 100 | 91 | 98 | 89 | – |
| CN(C)C(c1ccccc1)C1CCCCC1(O)c1ccoc1.Cl (stereo not shown) [Example 17, 2-(dimethylaminophenylmethyl)-1-furan-3-ylcyclohexanol, hydrochloride] | 100 | 54 | 72 | 70 | 57 | – |
| CCCCC1(O)CCCCC1C(c1ccccc1)N(C)C.Cl (stereo not shown) [Example 18, 1-butyl-2-(dimethylaminophenylmethyl)cyclohexanol, hydrochloride] | 100 | 81 | 75 | 95 | 84 | – |
| CN(C)C(c1ccccc1)C1CCCCC1(O)c1ccc(Cl)c(Cl)c1 (stereo not shown) [Example 19, 1-(3,4-dichlorophenyl)-2-(dimethylaminophenylmethyl)-cyclohexanol] | – | – | 81 | 97 | – | NA Uptake Inhibition at 1 μM (NA transporter): 50% |
| CN(C)C(c1ccccc1)C1CCCCC1(O)c1ccc2ccccc2c1.Cl (stereo not shown) [Example 21, 2-(dimethylaminophenylmethyl)-1-naphthalene-2-ylcyclohexanol, hydrochloride] | 97 | 85 | 71 | 94 | 17 | – |
| COc1cccc(CC2(O)CCCCC2C(c2ccc(C(F)(F)F)cc2)N(C)C)c1.Cl (stereo not shown) [Example 22, 2-[dimethylamino-(4-trifluoromethylphenyl)methyl]-1-(3-methoxybenzyl)cyclohexanol, hydrochloride] | 68 | 72 | 80 | 98 | 91 | – |
| Cc1ccccc1C(C1CCCCC1(O)c1ccccc1)N(C)C.Cl (stereo not shown) [Example 81, 2-(dimethylamino-o-tolylmethyl)-1-phenylcyclohexanol, hydrochloride] | – | – | – | – | – | % Inhibition of the writhing reaction at 10 mg/kg intravenously ([1]; hydrochloride, 10 mg/kg): 75%; NA Uptake Inhibition at 1 μM (NA transporter; hydrochloride): 66%; Diltiazem Binding at 10 μM ([3]; hydrochloride): 83%; BTX Binding at 10 μM ([4]; hydrochloride): 99% |
| CN(C)C(c1cccs1)C1CCCCC1(O)Cc1ccc(C(C)(C)C)cc1.Cl (stereo not shown) [Example 82, 1-(4-tert.-butylbenzyl)-2-[dimethylaminothiophen-2-ylmethyl]cyclohexanol, hydrochloride] | 100 | 85 | – | 98 | 0 | – |
| COc1ccc(CCN(C)CCCC(C#N)(c2ccc(OC)c(OC)c2)C(C)C)cc1OC (stereo not shown) [N-methyl-[^3H]-verapamil, reference compound] | – | – | – | – | – | Kd ([2]; radioligand, N=2, read-out: KD value for this binding site): 139 nM |
